Test results from patent US5635197A, “Treatment and prevention of prostatic cancer metastasis” (priority 1995, dated 1997).

Target: T1, Human Type I Steroid 5α-Reductase (Homo sapiens, UniProt P18405)
T1 construct: Preparation of Type I 5α-Reductase from Human Scalp; from tissue; host or cells: human scalp punch biopsies from hair transplant procedures; 100,000 x g pellet of skin homogenate
T1 sequence (P18405 1-259): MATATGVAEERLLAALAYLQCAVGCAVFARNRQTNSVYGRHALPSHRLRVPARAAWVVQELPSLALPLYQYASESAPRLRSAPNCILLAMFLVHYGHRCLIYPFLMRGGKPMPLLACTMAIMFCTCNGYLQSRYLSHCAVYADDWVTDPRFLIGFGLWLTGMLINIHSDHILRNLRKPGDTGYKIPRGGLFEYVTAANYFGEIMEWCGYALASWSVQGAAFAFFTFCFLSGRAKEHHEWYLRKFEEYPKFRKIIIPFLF
Assay: Human Type I steroid 5α-reductase homogenate assay (conversion of [3H]-testosterone to [3H]-5α-dihydrotestosterone)
Type: biochemical
Details: 0.3 μM concentration; compared to control reaction mixtures; enzyme from human scalp, pH 7.5, 25°, 180 min
From the text: Methodology of Human Type I Steroid 5α-Reductase Assays
Approximately 60-75 punches from one surgical procedure were used to generate an enzyme preparation. The subcutaneous tissue was cut away and discarded. The skin was frozen with liquid nitrogen and pulverized to powder. […] The homogenization procedure consisted of four 15 second pulses. Connective tissue was cleared from the probe with forceps between pulses. […] The pellet was resuspended by homogenization with a Dounce homogenizer using the same buffer solution. […] Aliquots of the enzyme preparation were stored at -80° until use.
The reaction was initiated by the addition of 0.5 mg of Type I 5α-reductase. The reaction mixture was incubated at 25° for 180 min, and terminated by the addition of 1 mL ice-cold stopping solution. […] The samples were prepared for high performance liquid chromatography by solid phase extraction. […] The reaction mixtures were then applied to the columns. The columns were subsequently washed with 5 mL of acetone:water (1:4), followed by 0.3 mL of methanol. The samples were then eluted with 3 mL of methanol and collected in 20 mL scintillation vials. Three mL of water was then added to each scintillation vial. […] The column temperature was maintained at 35° and the flow rate was 1.5 mL/min.

Row | percent inhibition of Type I 5AR [%] | Compound
1 | 86 | CN1C(=O)CC[C@]2(C)c3ccc(-c4ccc(-c5ccc(NC(=O)C(C)(C)C)s5)cc4)cc3CC[C@@H]12 [Example 222, (+)-(4aR)-(10bR)-4-methyl-8-(4-[(2-t-butylcarbonylamino]-5-thienyl]phenyl)-10b-methyl-1,2,3,4,4a,5,6,10b-octahydrobenzo[f]quinolin-3-one]
2 | 24 | (+)-(4aR)-(10bR)-4-methyl-8-(3-[1-benzyl-4-piperidinylcarboxamido]phenyl)-10b-methyl-1,2,3,4,4a,5,6,10b-octahydrobenzo[f]quinolin-3-one [Example 209]
3 | 13 | (+)-(4aR)-(10bR)-4-methyl-8-(3-t-butylcarboxamidophenyl)-10b-methyl-1,2,3,4,4a,5,6,10b-octahydrobenzo[f]quinolin-3-one [Example 34]
4 | 90 | (+)-(4aR)-(10bR)-4-methyl-8-benzyloxycarbonyl-10b-methyl-1,2,3,4,4a,5,6,10b-octahydrobenzo[f]quinolin-3-one [Example 144]
